Common to all, as to format: biochemical
For one test, the target named is T1, AKT3 (Homo sapiens, UniProt Q9Y243).
T1 construct: purchased SignalChem
Description: AKT Kinase Assay (IMAP fluorescent polarisation) vs AKT3. The following applies: activated AKT3, FAM Crosstide substrate. The gist of the method:
(§1)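 Each activated AKT isoform, at a pre-determined linear-range concentration, was pre-incubated 45 min at room temperature with compound in a fourteen-point half-log series. ATP plus 5′FAM-Crosstide then reacted 1 h; IMAP binding reagent stopped it (1 h). Fluorescence polarisation (ex 485/em 528 nm) versus vehicle gave IC50 by non-linear regression.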

In another test the target is T2, AKT2 (Homo sapiens, UniProt P31751).
T2 construct: purchased SignalChem
Kind of test: AKT Kinase Assay (IMAP fluorescent polarisation) vs AKT2. The following applies: activated AKT2, FAM Crosstide substrate. The method in brief:
as §1

For another test, the target named is T3, AKT1 (Homo sapiens, UniProt P31749).
T3 construct: purchased SignalChem
Kind of test: AKT Kinase Assay (IMAP fluorescent polarisation) vs AKT1. As to conditions: activated AKT1, FAM Crosstide substrate. The gist of the method:
as §1

Our source for the IC50 values is patent US20120309739A1, “AKT / PKB INHIBITORS” (ALMAC DISCOVERY LIMITED, priority 2009, published 2012).

For orientation: IC50 means the point on the concentration scale where inhibition reaches its midpoint.

Each structure is given as a SMILES string. Counter-ions that a name gives are not always drawn.

T2 sequence (P31751 whole entry): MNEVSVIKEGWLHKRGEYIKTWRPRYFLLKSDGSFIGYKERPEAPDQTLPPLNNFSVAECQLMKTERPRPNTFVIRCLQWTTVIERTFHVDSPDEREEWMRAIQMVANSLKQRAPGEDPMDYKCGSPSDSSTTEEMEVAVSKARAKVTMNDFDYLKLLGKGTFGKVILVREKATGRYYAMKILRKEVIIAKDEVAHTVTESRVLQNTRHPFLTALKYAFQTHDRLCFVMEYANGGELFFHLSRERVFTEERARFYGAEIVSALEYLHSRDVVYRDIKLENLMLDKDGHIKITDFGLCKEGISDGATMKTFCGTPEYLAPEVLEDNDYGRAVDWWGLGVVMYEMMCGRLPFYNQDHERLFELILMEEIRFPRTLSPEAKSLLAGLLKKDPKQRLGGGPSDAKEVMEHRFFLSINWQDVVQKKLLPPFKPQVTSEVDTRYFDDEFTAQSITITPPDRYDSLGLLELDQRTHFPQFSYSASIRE
T1 sequence (Q9Y243 whole entry): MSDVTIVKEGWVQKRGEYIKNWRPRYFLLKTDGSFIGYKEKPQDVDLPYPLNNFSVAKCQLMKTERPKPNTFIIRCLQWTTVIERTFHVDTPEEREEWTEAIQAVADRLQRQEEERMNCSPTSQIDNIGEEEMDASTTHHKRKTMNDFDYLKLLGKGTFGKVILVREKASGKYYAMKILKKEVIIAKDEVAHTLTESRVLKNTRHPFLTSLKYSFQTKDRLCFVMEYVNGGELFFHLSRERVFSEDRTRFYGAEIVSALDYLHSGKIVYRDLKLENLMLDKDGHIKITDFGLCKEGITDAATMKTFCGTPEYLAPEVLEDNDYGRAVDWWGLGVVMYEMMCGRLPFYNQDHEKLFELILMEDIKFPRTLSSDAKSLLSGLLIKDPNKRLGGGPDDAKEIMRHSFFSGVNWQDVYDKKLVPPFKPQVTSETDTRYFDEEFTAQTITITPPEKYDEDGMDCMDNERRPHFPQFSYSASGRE
T3 sequence (P31749 whole entry): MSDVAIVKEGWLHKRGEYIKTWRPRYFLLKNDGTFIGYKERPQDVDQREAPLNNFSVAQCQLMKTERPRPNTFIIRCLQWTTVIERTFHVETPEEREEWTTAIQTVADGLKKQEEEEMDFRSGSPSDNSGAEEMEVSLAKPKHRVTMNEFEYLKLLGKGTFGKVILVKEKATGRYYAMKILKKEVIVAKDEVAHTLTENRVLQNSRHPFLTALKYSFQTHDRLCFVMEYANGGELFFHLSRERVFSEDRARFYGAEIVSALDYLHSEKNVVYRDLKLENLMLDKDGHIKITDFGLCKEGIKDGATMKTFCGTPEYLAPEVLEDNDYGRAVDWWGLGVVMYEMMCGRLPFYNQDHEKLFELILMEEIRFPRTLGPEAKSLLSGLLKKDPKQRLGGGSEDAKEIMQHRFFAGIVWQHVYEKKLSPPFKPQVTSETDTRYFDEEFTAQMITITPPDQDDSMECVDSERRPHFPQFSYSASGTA

Consider `NC1(c2ccc(-c3oc4ncn(CCO)c(=O)c4c3-c3ccccc3)cc2)CCC1` [Example 102, 6-(4-(1-Aminocyclobutyl)phenyl)-3-(2-hydroxyethyl)-5-phenylfuro[2,3-d]pyrimidin-4(3H)-one, HCl], for which the half-maximal inhibitory concentration (IC50) on AKT3 fell in the range of 1000 to 10000 nM; on AKT2, 100 to 1000 nM; at AKT1, 1000 to 10000 nM.
With `NC1(c2ccc(-c3oc4ncn(CCF)c(=O)c4c3-c3ccccc3)cc2)CCC1` [Example 103, 6-(4-(1-Aminocyclobutyl)phenyl)-3-(2-fluoroethyl)-5-phenylfuro[2,3-d]pyrimidin-4(3H)-one, HCl], the IC50 at AKT3 was 1000 to 10000 nM; on AKT2, at most 100 nM; at AKT1, 100 to 1000 nM.
In the case of `CCn1cnc2oc(-c3ccc(C4(N)CCC4)cc3)c(-c3ccccc3)c2c1=O` [Example 104, 6-(4-(1-Aminocyclobutyl)phenyl)-3-ethyl-5-phenylfuro[2,3-d]pyrimidin-4(3H)-one, HCl], the figures for the IC50 at AKT3, at AKT2 and at AKT1 were 1000 to 10000 nM, at most 100 nM and 1000 to 10000 nM, respectively.
As to `COCCn1cnc2oc(-c3ccc(C4(N)CCC4)cc3)c(-c3ccccc3)c2c1=O` [Example 105, 6-(4-(1-Aminocyclobutyl)phenyl)-3-(2-methoxyethyl)-5-phenylfuro[2,3-d]pyrimidin-4(3H)-one, HCl], the IC50 fell in the range of 1000 to 10000 nM at AKT3, 100 to 1000 nM on AKT2 and 1000 to 10000 nM on AKT1.
Consider `NC1(c2ccc(-c3oc4ncn(CC(F)(F)F)c(=O)c4c3-c3ccccc3)cc2)CCC1` [Example 106, 6-(4-(1-Aminocyclobutyl)phenyl)-5-phenyl-3-(2,12-trifluoroethyl)furo[2,3-d]pyrimidin-4(3H)-one, HCl], for which the IC50 on AKT3 was 1000 to 10000 nM; at AKT2, at most 100 nM; at AKT1 it was 1000 to 10000 nM.
For `CC(C)n1cnc2oc(-c3ccc(C4(N)CCC4)cc3)c(-c3ccccc3)c2c1=O` [Example 107, 6-(4-(1-Aminocyclobutyl)phenyl)-3-isopropyl-5-phenylfuro[2,3-d]pyrimidin-4(3H)-one, HCl], the IC50 was in the range of 1000 to 10000 nM on AKT3, 100 to 1000 nM at AKT2 and 1000 to 10000 nM on AKT1.
For `NC1(c2ccc(-c3oc4ncn(CC(F)F)c(=O)c4c3-c3ccccc3)cc2)CCC1` [Example 108, 6-(4-(1-Aminocyclobutyl)phenyl)-3-(2,2-difluoroethyl)-5-phenylfuro[2,3-d]pyrimidin-4(3H)-one], the IC50 on AKT3 is 1000 to 10000 nM; on AKT2, at most 100 nM; on AKT1, 1000 to 10000 nM.
Consider `NC1(c2ccc(-c3oc4ccn(CC(F)(F)F)c(=O)c4c3-c3ccccc3)cc2)CCC1` [Example 109, 2-(4-(1-Aminocyclobutyl)phenyl)-3-Phenyl-5-(2,2,2-trifluoroethyl)furo[3,2-c]pyridin-4(5H)-one, HCl], for which the IC50 at AKT3 is above 10000 nM; at AKT2, at most 100 nM; on AKT1, 1000 to 10000 nM.
With `NC1(c2ccc(-c3oc4nc(NCCO)n(CCF)c(=O)c4c3-c3ccccc3)cc2)CCC1` [Example 110, 6-(4-(1-Aminocyclobutyl)phenyl)-3-(2-fluoroethyl)-2-(2-hydroxyethylamino)-5-phenylfuro[2,3-d]pyrimidin-4(3H)-one], the IC50 on AKT3 is 1000 to 10000 nM; on AKT2, at most 100 nM; on AKT1 it was 1000 to 10000 nM.
For `NC1(c2ccc(-c3oc4nc(NCCO)nc(OCCF)c4c3-c3ccccc3)cc2)CCC1` [Example 111, 2-((6-(4-(1-Aminocyclobutyl)phenyl)-4-(2-fluoroethoxy)-5-phenylfuro[2,3-d]pyrimidin-2-yl)amino)ethanol], the IC50 on AKT3 was 1000 to 10000 nM; on AKT2, 100 to 1000 nM; on AKT1, at most 100 nM.
In the case of `NC1(c2ccc(-c3oc4c(Br)cn(CCF)c(=O)c4c3-c3ccccc3)cc2)CCC1` [Example 112], the IC50 is above 10000 nM on AKT3, at most 100 nM at AKT2 and 100 to 1000 nM at AKT1.
For `Cn1cc(-c2cn(CCF)c(=O)c3c(-c4ccccc4)c(-c4ccc(C5(N)CCC5)cc4)oc23)cn1` [Example 113, 2-(4-(1-Aminocyclobutyl)phenyl)-5-(2-fluoroethyl)-7-(1-methyl-1H-pyrazol-4-yl)-3-phenylfuro[3,2-d]pyridin-4(5H)-one], in that order: 1000 to 10000 nM, 100 to 1000 nM and 100 to 1000 nM.
On the same counts, the results for `Cn1cc(-c2cn(C)c(=O)c3c(-c4ccccc4)c(-c4ccc(C5(N)CCC5)cc4)oc23)cn1` [Example 114, 2-(4-(1-Aminocyclobutyl)phenyl)-5-methyl-7-(1-methyl-1H-pyrazol-4-yl)-3-phenylfuro[3,2-c]pyridin-4(5H)-one] are 1000 to 10000 nM, 100 to 1000 nM and 100 to 1000 nM.
Take `Cn1cc(-c2cncnc2)c2oc(-c3ccc(C4(N)CCC4)cc3)c(-c3ccccc3)c2c1=O` [Example 115, 2-(4-(1-Aminocyclobutyl)phenyl)-5-methyl-3-phenyl-7-(pyrimidin-5-yl)furo[3,2-c]pyridin-4(5H)-one]: the figures for the IC50 at AKT3, on AKT2 and at AKT1 were above 10000 nM, 1000 to 10000 nM and 100 to 1000 nM, respectively.
As for `Cn1cc(-c2ccn[nH]2)c2oc(-c3ccc(C4(N)CCC4)cc3)c(-c3ccccc3)c2c1=O` [Example 116, 2-(4-(1-Aminocyclobutyl)phenyl)-5-methyl-3-phenyl-7-(1H-pyrazol-5-yl)furo[3,2-c]pyridin-4(5H)-one], the IC50 on AKT3 is above 10000 nM; on AKT2, 100 to 1000 nM; on AKT1, at most 100 nM.
On the same counts, the results for `Cn1cc(C(N)=O)c2oc(-c3ccc(C4(N)CCC4)cc3)c(-c3ccccc3)c2c1=O` [Example 117, 2-(4-(1-Aminocyclobutyl)phenyl)-5-methyl-4-oxo-3-phenyl-4,5-dihydrofuro[3,2-c]pyridine-7-carboxamide] are 1000 to 10000 nM, 100 to 1000 nM and 100 to 1000 nM.
On the same counts, the results for `COC(=O)c1cn(C)c(=O)c2c(-c3ccccc3)c(-c3ccc(C4(N)CCC4)cc3)oc12` [Example 118, Methyl 2-(4-(1-aminocyclobutyl)phenyl)-5-methyl-4-oxo-3-phenyl-4,5-dihydrofuro[3,2-c]pyridine-7-carboxylate] are 1000 to 10000 nM, 100 to 1000 nM and at most 100 nM.
On the same counts, the results for `CNC(=O)c1cn(C)c(=O)c2c(-c3ccccc3)c(-c3ccc(C4(N)CCC4)cc3)oc12` [Example 119, 2-(4-(1-Aminocyclobutyl)phenyl)-N,5-dimethyl-4-oxo-3-phenyl-4,5-dihydrofuro[3,2-c]pyridine-7-carboxamide] are above 10000 nM, 100 to 1000 nM and 100 to 1000 nM.
Regarding `Cn1cc(C(=O)NCCO)c2oc(-c3ccc(C4(N)CCC4)cc3)c(-c3ccccc3)c2c1=O` [Example 120, 2-(4-(1-Aminocyclobutyl)phenyl)-N-(2-hydroxyethyl)-5-methyl-4-oxo-3-phenyl-4,5-dihydrofuro[3,2-c]pyridine-7-carboxamide], the values for the IC50 on AKT3, at AKT2 and on AKT1 were above 10000 nM, 100 to 1000 nM and 100 to 1000 nM, respectively.
For the compound `NC1(c2ccc(-c3oc4nc(NCCO)n(CC(F)(F)F)c(=O)c4c3-c3ccccc3)cc2)CCC1` [Example 121, 6-(4-(1-Aminocyclobutyl)phenyl)-2-((2-hydroxyethyl)amino)-5-phenyl-3-(2,2,2-trifluoroethyl)furo[2,3-d]pyrimidin-4(3H)-one], the IC50 on AKT3 is 1000 to 10000 nM; on AKT2, at most 100 nM; on AKT1 it was 100 to 1000 nM.
